Experimental data published in patent publication US9682059B2 (priority 2013, dated 2017).
Read-outs that look alike come from different tables or passages of the source.

Tests used:
[1] = tested on: Lithium-pilocarpine induced status epilepticus; assay: animal or person; assay type: in vivo, rat; details: for responders at 46 mg/kg: Rattus norvegicus, iv, read-out: Protection %; for Protection %: rat, in vivo
[2] = tested on: PTZ-induced clonic seizure; assay: animal or person; assay type: in vivo, mice; details: Mus musculus, ip; for responders at 20.4 mg/kg: read-out: Protection %; for ED50: read-out: PTZ test ED50
[3] = tested on: maximal electroshock seizure; assay: animal or person; assay type: in vivo, mice
[4] = tested on: PTZ-induced clonic seizure; assay: animal or person; assay type: in vivo, rats; details: Rattus norvegicus, ip
neurotoxicity (rotarod) = assay: Neurotoxicity (rotarod); assay type: in vivo; details: mice, protective index
Method: The measurement of neurotoxicity of the test compounds was conducted by the method of Dunham and Miya [Dunham, N. W. and Miya, T. S. 1957. A note on a simple apparatus for detecting neurological deficit in rats and mice. J. Am. Pharm. Assoc. (Baltimore) 46: 208-209]. In the method, motor abilities of the test animals can be determined by observing whether the test animals can walk without falling from a rotator, thereby determining the value of neurotoxicity of each compound. […] They were pre-trained on the rotarod (Rotarod; Columbus instrument, rota-max, USA) at 6 rpm for 5 min 24 hr prior to the test. The peak time was determined by administration test material's random dose for 0.5, 1, 2, 4 hour. […] The ratio of TD50 to ED50(TD50/ED50) is called as a protective index, and useful as a parameter for comparison of pharmaceutical efficacy and neurotoxicity.

[5] = tested on: Lithium-pilocarpine induced status epilepticus; assay: animal or person; assay type: in vivo; details: Rattus norvegicus, ip, 1.5 h, read-out: Protection %
[6] = tested on: benzodiazepine-resistant status epilepticus; assay: animal or person; assay type: in vivo; details: Rattus norvegicus, ip, 10 min
[7] = tested on: lamotrigene-resistant amygdala kindled rat; assay: animal or person; assay type: in vivo; details: ip
6 Hz-induced seizure = assay: animal or person; assay type: in vivo, mice; details: ip

Row | Structure (SMILES) | responders at 46 mg/kg [1] [%] | responders at 20.4 mg/kg [2] [%] | further results
1 | C[C@H](OC(N)=O)[C@@H](O)c1ccccc1I [Compound 65, 1-(2-iodophenyl)-(S)-1-hydroxypropyl-(S)-2-carbamate] | 100 | 100 | 
2 | CCCC[C@H](OC(N)=O)[C@@H](O)c1ccccc1Cl [Compound 12, 1-(2-chlorophenyl)-(S)-1-hydroxyhexyl-(S)-2-carbamate] |  | 33.3 | 
3 | CCCNC(=O)O[C@H](C)[C@H](O)c1ccccc1Cl (racemic) [Compound 30, 1-(2-chlorophenyl)-1-hydroxypropyl-2-N-propylcarbamate] |  | 33.3 | Protection % ([3]; mouse, in vivo): 200 ^a(25%)
4 | C[C@@H](OC(N)=O)[C@@H](O)c1ccccc1Cl [Compound 4, 1-(2-chlorophenyl)-(S)-1-hydroxypropyl-(R)-2-carbamate] | 100 |  | ED50 [2]: 26.7 mg/kg; responders at 30 mg/kg ([4]; read-out: Protection %): 50%
5 | C[C@@H](OC(N)=O)[C@H](O)c1ccc(Cl)cc1Cl [Compound 45, 1-(2,4-dichlorophenyl)-(R)-1-hydroxypropyl-(R)-2-carbamate] | 33.3 | 16.7 | responders at 50 mg/kg ([4]; read-out: Protection %): 16.7%
6 | CCCC[C@@H](OC(N)=O)[C@H](O)c1ccccc1Cl [Compound 13, 1-(2-chlorophenyl)-(R)-1-hydroxyhexyl-(R)-2-carbamate] |  | 50 | 
7 | CCCNC(=O)O[C@@H](C)[C@@H](O)c1ccccc1Cl [Compound 23, 1-(2-chlorophenyl)-(R)-1-hydroxypropyl-(R)-2-N-propylcarbamate] |  | 50 | 
8 | CCCC[C@H](OC(N)=O)[C@@H](O)c1c(Cl)cccc1Cl [Compound 44, 1-(2,6-dichlorophenyl)-(S)-1-hydroxyhexyl-(S)-2-carbamate] |  | 33.3 | 
9 | CC(C)[C@H](OC(N)=O)[C@@H](O)c1ccccc1Cl [Compound 9, 1-(2-chlorophenyl)-(8)-1-hydroxy-3-methyl-butyl-(8)-2-carbamate] |  | 33.3 | 
10 | C[C@H](OC(N)=O)[C@@H](O)c1ccc(Cl)cc1Cl [Compound 36, 1-(2,4-dichlorophenyl)-(S)-1-hydroxypropyl-(S)-2-carbamate] |  | 33.3 | 
11 | C[C@H](OC(N)=O)[C@@H](O)c1cccc(Cl)c1Cl [Compound 38, 1-(2,3-dichlorophenyl)-(S)-1-hydroxypropyl-(S)-2-carbamate] | 50 | 50 | 
12 | C[C@@H](OC(N)=O)[C@H](O)c1ccccc1Cl [Compound 2, 1-(2-chlorophenyl)-(R)-1-hydroxypropyl-(R)-2-carbamate] | 50 |  | PI(TD50/ED50 in MES) (neurotoxicity (rotarod)): 7.3; ED50 ([4]; read-out: PTZ test ED50): 51.9 mg/kg
13 | C[C@H](OC(=O)NC1CC1)[C@@H](O)c1ccccc1Cl (single isomer, unassigned) [Compound 25] |  | 66.7 | responders at 60 mg/kg [5]: 100%; Protection % [1]: ^a46 (100%)
14 | C[C@H](OC(=O)NC1CC1)[C@@H](O)c1ccccc1Cl [Compound 18, 1-(2-chlorophenyl)-(S)-1-hydroxypropyl-(R)-2-N-cyclopropylcarbamate] |  |  | Protection % [1]: ^a46 (66.7%); responders at 30 mg/kg ([4]; read-out: Protection %): 16.7%
15 | CNC(=O)O[C@@H](C)[C@@H](O)c1ccccc1Cl [Compound 15, 1-(2-chlorophenyl)-(S)-1-hydroxypropyl-(S)-2-N-methylcarbamate] | 100 |  | responders at 25 mg/kg ([4]; read-out: Protection %): 33.3%
16 | CCC(OC(N)=O)C(O)c1ccccc1Cl (racemic) [Compound 8, 1-(2-chlorophenyl)-1-hydroxybutyl-2-carbamate] | 50 | 50 | 
17 | CC[C@H](OC(N)=O)[C@@H](O)c1ccccc1Cl [Compound 6, 1-(2-chlorophenyl)-(S)-1-hydroxybutyl-(S)-2-carbamate] | 100 |  | ED50 [2]: 17.9 mg/kg; responders at 30 mg/kg ([4]; read-out: Protection %): 50%

Row | Structure (SMILES) | responders at 46 mg/kg [1] [%] | responders at 20.4 mg/kg [2] [%] | further results
18 | C[C@H](OC(N)=O)[C@@H](O)c1ccccc1Cl [Compound 1, 1-(2-chlorophenyl)-(S)-1-hydroxypropyl-(S)-2-carbamate] |  |  | ED50 [6]: 96.9 mg/kg; ED50 ([7]; Rattus norvegicus): 17 mg/kg; Seizure Score ([7]; rat, in vivo): 2.0 ± 0.7(Control: 5.0 ± 0.0); ED50 (6 Hz-induced seizure; Mus musculus): 14.6 mg/kg; ED50 (6 Hz-induced seizure; mouse, in vivo): 13.66 mg/kg; PI(TD50/ED50 in MES) (neurotoxicity (rotarod)): 16.8
19 | CCCC[C@H](OC(N)=O)[C@@H](O)c1ccc(Cl)cc1Cl [Compound 43, 1-(2,4-dichlorophenyl)-(S)-1-hydroxyhexyl-(S)-2-carbamate] |  |  | responders at 25 mg/kg ([4]; read-out: Protection %): 33.3%
20 | CCCCC(OC(N)=O)C(O)c1ccccc1Cl (racemic) [Compound 14, 1-(2-chlorophenyl)-1-hydroxyhexyl-2-carbamate] |  | 16.7 | 
21 | CC[C@H](OC(N)=O)[C@@H](O)c1c(Cl)cccc1Cl [Compound 40, 1-(2,6-dichlorophenyl)-(S)-1-hydroxybutyl-(S)-2-carbamate] | 100 | 33.3 | 
22 | C[C@H](OC(N)=O)[C@@H](O)c1c(Cl)cccc1Cl [Compound 37, 1-(2,6-dichlorophenyl)-(S)-1-hydroxypropyl-(S)-2-carbamate] | 100 |  | PI(TD50/ED50 in MES) (neurotoxicity (rotarod)): 5.1; ED50 [2]: 25.7 mg/kg; responders at 30 mg/kg ([4]; read-out: Protection %): 50%
23 | CC(OC(N)=O)C(O)c1ccccc1Cl (racemic) [Compound 3, 1-(2-chlorophenyl)-1-hydroxypropyl-2-carbamate] |  |  | PI(TD50/ED50 in MES) (neurotoxicity (rotarod)): 12.0
24 | CC(C)NC(=O)O[C@H](C)[C@H](O)c1ccccc1Cl (racemic) [Compound 31, 1-(2-chlorophenyl)-1-hydroxypropyl-2-N-isopropylcarbamate] | 100 | 83.3 | 
25 | CC[C@H](OC(N)=O)[C@@H](O)c1ccccc1I [Compound 67, 1-(2-iodophenyl)-(S)-1-hydroxybutyl-(S)-2-carbamate] | 100 |  | ED50 [2]: 23.1 mg/kg; responders at 30 mg/kg ([4]; read-out: Protection %): 33.3%
26 | C[C@@H](OC(=O)NC1CC1)[C@H](O)c1ccccc1Cl (racemic) [Compound 32, 1-(2-chlorophenyl)-1-hydroxypropyl-2-N-cyclopropylcarbamate] | 100 | 16.7 | responders at 200 mg/kg ([3]; Mus musculus, po, read-out: Protection %): 100%
27 | C[C@H](OC(N)=O)[C@@H](O)c1ccccc1F [Compound 63, 1-(2-fluorophenyl)-(S)-1-hydroxypropyl-(S)-2-carbamate] | 50 | 50 | 
28 | CNC(=O)O[C@H](C)[C@H](O)c1ccccc1Cl (racemic) [Compound 29, 1-(2-chlorophenyl)-1-hydroxypropyl-2-N-methylcarbamate] |  | 33.3 | 
29 | C[C@@H](OC(N)=O)[C@H](O)c1c(Cl)cccc1Cl [Compound 46, 1-(2,6-dichlorophenyl)-(R)-1-hydroxypropyl-(R)-2-carbamate] | 50 | 50 | 
30 | C[C@H](OC(N)=O)[C@H](O)c1ccccc1Cl [Compound 5, 1-(2-chlorophenyl)-(R)-1-hydroxypropyl-(S)-2-carbamate] |  |  | PI(TD50/ED50 in MES) (neurotoxicity (rotarod)): 3.3
31 | CC[C@H](OC(N)=O)[C@@H](O)c1ccc(Cl)cc1Cl [Compound 39, 1-(2,4-dichlorophenyl)-(S)-1-hydroxybutyl-(S)-2-carbamate] |  |  | ED50 [2]: 24.3 mg/kg
32 | CC(C)[C@H](OC(N)=O)[C@@H](O)c1c(Cl)cccc1Cl [Compound 42, 1-(2,6-dichlorophenyl)-(S)-1-hydroxy-3-methyl-butyl-(S)-2-carbamate] |  | 50 | 
33 | CCCNC(=O)O[C@@H](C)[C@@H](O)c1ccccc1Cl [Compound 16, 1-(2-chlorophenyl)-(S)-1-hydroxypropyl-(S)-2-N-propylcarbamate] | 100 |  | responders at 30 mg/kg ([4]; read-out: Protection %): 33.3%
